# Data taken from ChEMBL document CHEMBL3885861, “Open TG-GATES”.
# Species on record: Rattus norvegicus
# Experiment: Open TG-GATES - Regimen: Single
# Format: toxicity, organism-based, Sprague-Dawley
# Set-up: regimen Single, gender Male, age 6 weeks
# Conditions: in vivo, po, 100 mg/kg, route gavage, dose level Low; for APTT / Bas / Eos / Fbg / Hb / Ht / Lym / MCH / MCHC / MCV / Mono / Neu / PT / Plat / RBC / Ret / WBC: tissue Blood; for KIDNEY_L / KIDNEY_R / KIDNEY_TOTAL: tissue Kidney; for LIVER: tissue Liver; for ALP / ALT / AST / CRE / DBIL / GLC / IP / K / LDH / Na / PL / RALB / TBIL / TC / TP / gamma-GTP: tissue Plasma
smiles,measurement,setting,value
Clc1ccccc1CN1CCc2sccc2C1 [TICLOPIDINE],TERMINAL_BW,3 h,210.7 g
same,APTT,3 h,19.6 s
same,Bas,3 h,0.2%
same,Eos,3 h,0.8%
same,Fbg,3 h,226.4 mg/dL
same,Hb,3 h,13.4 g/dL
same,Ht,3 h,38.3%
same,Lym,3 h,78.6%
same,MCH,3 h,21.4 pg
same,MCHC,3 h,35%
same,MCV,3 h,61.1 fL
same,Mono,3 h,2.8%
same,Neu,3 h,16.6%
same,PT,3 h,12.2 s
same,Plat,3 h,117.9 x10_4/uL
same,RBC,3 h,628 x10_4/ul
same,Ret,3 h,8.1%
same,WBC,3 h,70.6 x10_2/uL
same,KIDNEY_L,3 h,1 g
same,KIDNEY_R,3 h,1 g
same,KIDNEY_TOTAL,3 h,2 g
same,LIVER,3 h,9 g
same,ALP,3 h,1125 IU/L
same,ALT,3 h,35 IU/L
same,AST,3 h,71 IU/L
same,CRE,3 h,0.4 mg/dL
same,DBIL,3 h,0.076 mg/dL
same,GLC,3 h,200.6 mg/dL
same,IP,3 h,10.6 mg/dL
same,K,3 h,3.9 meq/L
same,LDH,3 h,155.4 IU/L
same,Na,3 h,141.4 meq/L
same,PL,3 h,132.2 mg/dL
same,RALB,3 h,3.3 g/dL
same,TBIL,3 h,0.1 mg/dL
same,TC,3 h,70.2 mg/dL
same,TP,3 h,5.5 g/dL
same,gamma-GTP,3 h,0.8 IU/L
same,TERMINAL_BW,6 h,209.6 g
same,APTT,6 h,18.1 s
same,Bas,6 h,0.4%
same,Eos,6 h,1%
same,Fbg,6 h,231.6 mg/dL
same,Hb,6 h,13.4 g/dL
same,Ht,6 h,37.9%
same,Lym,6 h,76%
same,MCH,6 h,20.8 pg
same,MCHC,6 h,35.3%
same,MCV,6 h,58.9 fL
same,Mono,6 h,2.8%
same,Neu,6 h,19.2%
same,PT,6 h,12.3 s
same,Plat,6 h,130.4 x10_4/uL
same,RBC,6 h,643.6 x10_4/ul
same,Ret,6 h,7.9%
same,WBC,6 h,75.4 x10_2/uL
same,KIDNEY_L,6 h,0.9 g
same,KIDNEY_R,6 h,0.9 g
same,KIDNEY_TOTAL,6 h,1.8 g
same,LIVER,6 h,8.7 g
same,ALP,6 h,940.2 IU/L
same,ALT,6 h,31.6 IU/L
same,AST,6 h,68.4 IU/L
same,CRE,6 h,0.4 mg/dL
same,DBIL,6 h,0.08 mg/dL
same,GLC,6 h,189 mg/dL
same,IP,6 h,10.1 mg/dL
same,K,6 h,3.9 meq/L
same,LDH,6 h,212 IU/L
same,Na,6 h,141.4 meq/L
same,PL,6 h,137.2 mg/dL
same,RALB,6 h,3.4 g/dL
same,TBIL,6 h,0.1 mg/dL
same,TC,6 h,77.8 mg/dL
same,TP,6 h,5.5 g/dL
same,gamma-GTP,6 h,0.8 IU/L
same,TERMINAL_BW,9 h,208 g
same,APTT,9 h,17.3 s
same,Bas,9 h,0.2%
same,Eos,9 h,0.6%
same,Fbg,9 h,226.6 mg/dL
same,Hb,9 h,13.3 g/dL
same,Ht,9 h,37.5%
same,Lym,9 h,74.6%
same,MCH,9 h,21.4 pg
same,MCHC,9 h,35.4%
same,MCV,9 h,60.5 fL
same,Mono,9 h,2.8%
same,Neu,9 h,20.6%
same,PT,9 h,12.7 s
same,Plat,9 h,123.9 x10_4/uL
same,RBC,9 h,621.6 x10_4/ul
same,Ret,9 h,7.5%
same,WBC,9 h,81 x10_2/uL
same,KIDNEY_L,9 h,0.9 g
same,KIDNEY_R,9 h,0.9 g
same,KIDNEY_TOTAL,9 h,1.9 g
same,LIVER,9 h,8.3 g
same,ALP,9 h,955 IU/L
same,ALT,9 h,29.6 IU/L
same,AST,9 h,69.8 IU/L
same,CRE,9 h,0.4 mg/dL
same,DBIL,9 h,0.082 mg/dL
same,GLC,9 h,199.8 mg/dL
same,IP,9 h,10 mg/dL
same,K,9 h,3.8 meq/L
same,LDH,9 h,151.2 IU/L
same,Na,9 h,142.6 meq/L
same,PL,9 h,141.6 mg/dL
same,RALB,9 h,3.4 g/dL
same,TBIL,9 h,0.1 mg/dL
same,TC,9 h,77.6 mg/dL
same,TP,9 h,5.4 g/dL
same,gamma-GTP,9 h,1.4 IU/L
same,TERMINAL_BW,24 h,219.8 g
same,APTT,24 h,21.2 s
same,Bas,24 h,1%
same,Eos,24 h,1%
same,Fbg,24 h,222 mg/dL
same,Hb,24 h,13.6 g/dL
same,Ht,24 h,38.3%
same,Lym,24 h,77.8%
same,MCH,24 h,21.7 pg
same,MCHC,24 h,35.5%
same,MCV,24 h,61.3 fL
same,Mono,24 h,2.8%
same,Neu,24 h,16.8%
same,PT,24 h,12 s
same,Plat,24 h,124.9 x10_4/uL
same,RBC,24 h,624.4 x10_4/ul
same,Ret,24 h,6.3%
same,WBC,24 h,116 x10_2/uL
same,KIDNEY_L,24 h,1 g
same,KIDNEY_R,24 h,1 g
same,KIDNEY_TOTAL,24 h,2 g
same,LIVER,24 h,10.1 g
same,ALP,24 h,1052.4 IU/L
same,ALT,24 h,37.8 IU/L
same,AST,24 h,70.2 IU/L
same,CRE,24 h,0.4 mg/dL
same,DBIL,24 h,0.072 mg/dL
same,GLC,24 h,188.6 mg/dL
same,IP,24 h,8.1 mg/dL
same,K,24 h,4.1 meq/L
same,LDH,24 h,141.4 IU/L
same,Na,24 h,141.6 meq/L
same,PL,24 h,136.4 mg/dL
same,RALB,24 h,3.4 g/dL
same,TBIL,24 h,0.1 mg/dL
same,TC,24 h,72.2 mg/dL
same,TP,24 h,5.5 g/dL
same,gamma-GTP,24 h,1 IU/L
